Earlier results, collected in patent US7358271B2, “Sulpiride pharmaceutical compositions” (Williamsburg Holdings LLC, priority 2003, dated 2008).
Where two headings read alike, the source gives them in different places.

Columns and labels:
[1] = healthy volunteers, oral
[2] = compared with physiological pH
[3] = oral formulations

Question: For `CCN1CCCC1CNC(=O)c1cc(S(N)(=O)=O)ccc1OC` (stereo not shown) [sulpiride, N-(1-Ethyl-pyrrolidin-2-ylmethyl)-2-methoxy-5-sulfamoyl-benzamide], which bioavailability ([1]; after food) is on record?
Answer: 27%

Question: And the bioavailability ([1]; without food)?
Answer: 20%

Question: What about the pKa [2] of the same molecule?
Answer: lower than physiological pH

Question: What about the “absorption in the gastrointestinal tract” value [3] of the same molecule?
Answer: ~30%
